# Results as given in the supplement of paper PMC7287046.
# What was measured:
# Conditions in all cases: exposure time: 72 h
# AM-38 [1] = assay: HSA synergy score (Combenefit); higher = more synergy
# Procedure: (§1)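 The same 6x6 dose matrices of drug pairs on glioma cell lines (72 h, CellTiter-Glo viability normalised to DMSO, triplicate) were scored with Combenefit. The Loewe, Bliss and HSA synergy scores are given; paper thresholds are Loewe 7.8 and Bliss 2.5.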
# KNS-42 [2] = assay: as above
# Procedure: as §1
# SF268 [3] = assay: as above
# Procedure: as §1
# SF539 [4] = assay: as above
# Procedure: as §1
# SNB75 [5] = assay: as above
# Procedure: as §1
# T98G [6] = assay: as above
# Procedure: as §1
# U118 [7] = assay: as above
# Procedure: as §1
# U251 [8] = assay: as above
# Procedure: as §1
# U87 [9] = assay: as above
# Procedure: as §1
# AM38 = assay: Chou-Talalay combination index (dimensionless); higher = less synergy (more antagonism)
# Procedure: (§2)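 Glioma cell lines were treated for 72 h with a 6x6 matrix of two drugs, each in twofold dilutions with the top dose at the single-drug IC50. Viability was read by CellTiter-Glo and normalised to DMSO controls, in triplicate. The Chou-Talalay combination index was computed by the median effect principle; CI < 0.8 means synergy.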
# KNS42 = assay: as above
# Procedure: as §2
# SF268 [10] = assay: as above
# Procedure: as §2
# SF539 [11] = assay: as above
# Procedure: as §2
# SNB75 [12] = assay: as above
# Procedure: as §2
# T98 = assay: as above
# Procedure: as §2
# U118 [13] = assay: as above
# Procedure: as §2
# U251 [14] = assay: as above
# Procedure: as §2
# U87 [15] = assay: as above
# Procedure: as §2
# AM-38 [16] = assay: Bliss synergy score (Combenefit); higher = more synergy; extreme values may be limits of the assay
# Procedure: as §1
# KNS-42 [17] = assay: as above
# Procedure: as §1
# SF268 [18] = assay: as above
# Procedure: as §1
# SF539 [19] = assay: as above
# Procedure: as §1
# SNB75 [20] = assay: as above
# Procedure: as §1
# T98G [21] = assay: as above
# Procedure: as §1
# U118 [22] = assay: as above
# Procedure: as §1
# U251 [23] = assay: as above
# Procedure: as §1
# U87 [24] = assay: as above
# Procedure: as §1
# AM-38 [25] = assay: Loewe synergy score (Combenefit); higher = more synergy; extreme values may be limits of the assay
# Procedure: as §1
# KNS-42 [26] = assay: as above
# Procedure: as §1
# SF268 [27] = assay: as above
# Procedure: as §1
# SF539 [28] = assay: as above
# Procedure: as §1
# SNB75 [29] = assay: as above
# Procedure: as §1
# T98G [30] = assay: as above
# Procedure: as §1
# U118 [31] = assay: as above
# Procedure: as §1
# U251 [32] = assay: as above
# Procedure: as §1
# U87 [33] = assay: as above
# Procedure: as §1
SMILES,HSA synergy score (AM-38 [1]),HSA synergy score (KNS-42 [2]),HSA synergy score (SF268 [3]),HSA synergy score (SF539 [4]),HSA synergy score (SNB75 [5]),HSA synergy score (T98G [6]),HSA synergy score (U118 [7]),HSA synergy score (U251 [8]),HSA synergy score (U87 [9]),Chou-Talalay combination index (AM38),Chou-Talalay combination index (KNS42),Chou-Talalay combination index (SF268 [10]),Chou-Talalay combination index (SF539 [11]),Chou-Talalay combination index (SNB75 [12]),Chou-Talalay combination index (T98),Chou-Talalay combination index (U118 [13]),Chou-Talalay combination index (U251 [14]),Chou-Talalay combination index (U87 [15]),Bliss synergy score (AM-38 [16]),Bliss synergy score (KNS-42 [17]),Bliss synergy score (SF268 [18]),Bliss synergy score (SF539 [19]),Bliss synergy score (SNB75 [20]),Bliss synergy score (T98G [21]),Bliss synergy score (U118 [22]),Bliss synergy score (U251 [23]),Bliss synergy score (U87 [24]),Loewe synergy score (AM-38 [25]),Loewe synergy score (KNS-42 [26]),Loewe synergy score (SF268 [27]),Loewe synergy score (SF539 [28]),Loewe synergy score (SNB75 [29]),Loewe synergy score (T98G [30]),Loewe synergy score (U118 [31]),Loewe synergy score (U251 [32]),Loewe synergy score (U87 [33])
CC(=O)O[C@@]12CO[C@@H]1C[C@H](O)[C@@]1(C)C(=O)[C@H](O)C3=C(C)[C@@H](OC(=O)[C@H](O)[C@@H](NC(=O)OC(C)(C)C)c4ccccc4)C[C@@](O)([C@@H](OC(=O)c4ccccc4)[C@H]21)C3(C)C [Docetaxel] + CCCCCCCCCCCC1=C(O)C(=O)C=C(O)C1=O [Embelin],1.16,6.6,1.82,3.01,3.76,2.71,0.358,9.62,0.7,1.08,0.349,1.01,0.835,0.849,0.911,0.982,0.659,0.827,0,3.74,0.0571,0.24,0.144,0.71,0.219,3.66,0.7,0.74,3.76,0,2.91,0.195,2.71,0.129,0.944,0.7
Nc1ccn([C@@H]2O[C@H](CO)[C@@H](O)C2(F)F)c(=O)n1 [Gemcitabine] + C=CCc1cccc(/C=N/NC(=O)CN2CCN(Cc3ccccc3)CC2)c1O [PAC-1],0.966,22.7,3.55,3.14,5.49,3.73,1.58,1.09,0,1,0.675,0.965,0.863,0.978,0.935,0.999,0.722,1.06,0,0.716,0.0746,0.236,0.278,0.518,0,0.174,0,0.966,21.9,0.48,0.062,0.834,0.986,0,0.777,0
